Measurements from ChEMBL document CHEMBL1201862, “PubChem BioAssay data set” (2004).
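Five concentrations, 48 hours, 96-well plates. GI50 = concentration required for 50% inhibition of growth.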 Active and inactive are the calls of the source. No stated cut-off is given here; in the data, active = GI50 up to about 1.1 µM and inactive = higher.

Key:
Assay in all cases: NCI-60 cell line screen, 48 h
[1] = test system: SN12C
[2] = test system: 786-0
[3] = test system: NCI-H522
[4] = test system: K562
[5] = test system: U-251
[6] = test system: NCI-H226
[7] = test system: T47D
[8] = test system: CAKI-1
[9] = test system: HL-60
[10] = test system: KM12
[11] = test system: IGROV-1
[12] = test system: RPMI-8226
[13] = test system: SF-295
[14] = test system: HCT-15
[15] = test system: Hs-578T
[16] = test system: MDA-MB-435
[17] = test system: MDA-MB-231
[18] = test system: SNB-19
[19] = test system: SK-MEL-28
[20] = test system: SNB-75
[21] = test system: DU-145
[22] = test system: HCT-116
[23] = test system: OVCAR-3
[24] = test system: RXF 393
[25] = test system: MDA-N
[26] = test system: A498
[27] = test system: SR
[28] = test system: PC-3
[29] = test system: SW-620
[30] = test system: M14
[31] = test system: MCF7
[32] = test system: NCI-H460
[33] = test system: A549
[34] = test system: HOP-62
[35] = test system: EKVX
[36] = test system: SK-MEL-2
[37] = test system: SK-MEL-5
[38] = test system: SF-268
[39] = test system: HT-29
[40] = test system: UACC-257
[41] = test system: OVCAR-4
[42] = test system: UACC-62
[43] = test system: HCC 2998
[44] = test system: SK-OV-3
[45] = test system: HOP-92
[46] = test system: OVCAR-5
[47] = test system: CCRF-CEM
[48] = test system: ACHN
[49] = test system: COLO 205
[50] = test system: TK-10
[51] = test system: Malme-3M
[52] = test system: OVCAR-8
[53] = test system: UO-31
[54] = test system: MOLT-4
[55] = test system: NCI/ADR-RES
[56] = test system: LOX IMVI
[57] = test system: NCI-H23
[58] = test system: BT-549
[59] = test system: SF-539

C[N+]12CCCCC1C(CN1C(=O)c3ccccc3C1=O)CCC2 (stereo not given)
GI50 [1]: > 100 µM (inactive) | GI50 [2]: > 100 µM (inactive) | GI50 [3]: > 100 µM (inactive) | GI50 [4]: > 100 µM (inactive) | GI50 [5]: > 100 µM (inactive) | GI50 [6]: > 100 µM (inactive) | GI50 [7]: > 100 µM (inactive) | GI50 [8]: > 100 µM (inactive) | GI50 [9]: > 100 µM (inactive) | GI50 [10]: > 100 µM (inactive) | GI50 [11]: > 100 µM (inactive) | GI50 [12]: > 100 µM (inactive) | GI50 [13]: > 100 µM (inactive) | GI50 [14]: > 100 µM | GI50 [15]: > 100 µM (inactive) | GI50 [16]: > 100 µM (inactive) | GI50 [17]: > 100 µM (inactive) | GI50 [18]: > 100 µM (inactive) | GI50 [19]: > 100 µM (inactive) | GI50 [20]: > 100 µM (inactive) | GI50 [21]: > 100 µM (inactive) | GI50 [22]: > 100 µM (inactive) | GI50 [23]: > 100 µM (inactive) | GI50 [24]: > 100 µM (inactive) | GI50 [25]: > 100 µM (inactive) | GI50 [26]: > 100 µM (inactive) | GI50 [27]: 56 µM (inactive) | GI50 [28]: > 100 µM (inactive) | GI50 [29]: > 100 µM (inactive) | GI50 [30]: > 100 µM (inactive) | GI50 [31]: > 100 µM (inactive) | GI50 [32]: > 100 µM (inactive) | GI50 [33]: > 100 µM (inactive) | GI50 [34]: > 100 µM (inactive) | GI50 [35]: > 100 µM (inactive) | GI50 [36]: > 100 µM (inactive) | GI50 [37]: > 100 µM (inactive) | GI50 [38]: > 100 µM (inactive) | GI50 [39]: > 100 µM (inactive) | GI50 [40]: > 100 µM (inactive) | GI50 [41]: > 100 µM (inactive) | GI50 [42]: > 100 µM (inactive) | GI50 [43]: > 100 µM (inactive) | GI50 [44]: > 100 µM (inactive) | GI50 [45]: > 100 µM (inactive) | GI50 [46]: > 100 µM (inactive) | GI50 [47]: > 100 µM (inactive) | GI50 [48]: > 100 µM (inactive) | GI50 [49]: > 100 µM (inactive) | GI50 [50]: > 100 µM (inactive) | GI50 [51]: > 100 µM (inactive) | GI50 [52]: > 100 µM (inactive) | GI50 [53]: > 100 µM (inactive) | GI50 [54]: > 100 µM (inactive) | GI50 [55]: > 100 µM (inactive) | GI50 [56]: > 100 µM (inactive) | GI50 [57]: > 100 µM (inactive) | GI50 [58]: > 100 µM (inactive) | GI50 [59]: > 100 µM (inactive)

CC(=O)Nc1cc(Cl)cc(Cl)c1O
GI50 [1]: > 100 µM (inactive) | GI50 [2]: > 100 µM (inactive) | GI50 [3]: > 100 µM (inactive) | GI50 [4]: > 100 µM (inactive) | GI50 [5]: > 100 µM (inactive) | GI50 [6]: > 100 µM (inactive) | GI50 [7]: > 100 µM (inactive) | GI50 [8]: > 100 µM (inactive) | GI50 [9]: > 100 µM (inactive) | GI50 [10]: > 100 µM (inactive) | GI50 [11]: > 100 µM (inactive) | GI50 [12]: > 100 µM (inactive) | GI50 [13]: > 100 µM (inactive) | GI50 [14]: > 100 µM | GI50 [15]: > 100 µM (inactive) | GI50 [16]: > 100 µM (inactive) | GI50 [17]: > 100 µM (inactive) | GI50 [18]: > 100 µM (inactive) | GI50 [19]: > 100 µM (inactive) | GI50 [20]: 97.1 µM (inactive) | GI50 [21]: > 100 µM (inactive) | GI50 [22]: > 100 µM (inactive) | GI50 [23]: > 100 µM (inactive) | GI50 [24]: > 100 µM (inactive) | GI50 [25]: > 100 µM (inactive) | GI50 [26]: > 100 µM (inactive) | GI50 [27]: > 100 µM (inactive) | GI50 [28]: > 100 µM (inactive) | GI50 [29]: > 100 µM (inactive) | GI50 [30]: > 100 µM (inactive) | GI50 [31]: > 100 µM (inactive) | GI50 [32]: > 100 µM (inactive) | GI50 [33]: > 100 µM (inactive) | GI50 [34]: > 100 µM (inactive) | GI50 [35]: > 100 µM (inactive) | GI50 [36]: > 100 µM (inactive) | GI50 [37]: > 100 µM (inactive) | GI50 [38]: > 100 µM (inactive) | GI50 [39]: > 100 µM (inactive) | GI50 [40]: > 100 µM (inactive) | GI50 [41]: > 100 µM (inactive) | GI50 [42]: > 100 µM (inactive) | GI50 [43]: > 100 µM (inactive) | GI50 [44]: > 100 µM (inactive) | GI50 [45]: > 100 µM (inactive) | GI50 [46]: > 100 µM (inactive) | GI50 [47]: > 100 µM (inactive) | GI50 [48]: > 100 µM (inactive) | GI50 [49]: > 100 µM (inactive) | GI50 [50]: > 100 µM (inactive) | GI50 [51]: > 100 µM (inactive) | GI50 [52]: > 100 µM (inactive) | GI50 [53]: > 100 µM (inactive) | GI50 [54]: > 100 µM (inactive) | GI50 [55]: > 100 µM (inactive) | GI50 [57]: > 100 µM (inactive) | GI50 [58]: > 100 µM (inactive) | GI50 [59]: > 100 µM (inactive)

N=C(N)NCC1CCCCCCN1 (stereo not given)
GI50 [1]: > 100 µM (inactive) | GI50 [2]: > 100 µM (inactive) | GI50 [3]: > 100 µM (inactive) | GI50 [4]: > 100 µM (inactive) | GI50 [5]: > 100 µM (inactive) | GI50 [6]: > 100 µM (inactive) | GI50 [7]: > 100 µM (inactive) | GI50 [8]: > 100 µM (inactive) | GI50 [9]: > 100 µM (inactive) | GI50 [10]: > 100 µM (inactive) | GI50 [11]: > 100 µM (inactive) | GI50 [12]: > 100 µM (inactive) | GI50 [13]: > 100 µM (inactive) | GI50 [14]: > 100 µM | GI50 [15]: > 100 µM (inactive) | GI50 [16]: > 100 µM (inactive) | GI50 [17]: > 100 µM (inactive) | GI50 [18]: > 100 µM (inactive) | GI50 [19]: > 100 µM (inactive) | GI50 [20]: > 100 µM (inactive) | GI50 [21]: > 100 µM (inactive) | GI50 [22]: > 100 µM (inactive) | GI50 [23]: > 100 µM (inactive) | GI50 [24]: > 100 µM (inactive) | GI50 [25]: > 100 µM (inactive) | GI50 [26]: > 100 µM (inactive) | GI50 [27]: > 100 µM (inactive) | GI50 [28]: > 100 µM (inactive) | GI50 [29]: > 100 µM (inactive) | GI50 [30]: > 100 µM (inactive) | GI50 [31]: > 100 µM (inactive) | GI50 [32]: > 100 µM (inactive) | GI50 [33]: > 100 µM (inactive) | GI50 [34]: > 100 µM (inactive) | GI50 [35]: > 100 µM (inactive) | GI50 [36]: > 100 µM (inactive) | GI50 [37]: > 100 µM (inactive) | GI50 [38]: > 100 µM (inactive) | GI50 [39]: > 100 µM (inactive) | GI50 [40]: > 100 µM (inactive) | GI50 [41]: > 100 µM (inactive) | GI50 [42]: > 100 µM (inactive) | GI50 [43]: > 100 µM (inactive) | GI50 [44]: > 100 µM (inactive) | GI50 [45]: > 100 µM (inactive) | GI50 [46]: > 100 µM (inactive) | GI50 [47]: > 100 µM (inactive) | GI50 [48]: > 100 µM (inactive) | GI50 [49]: > 100 µM (inactive) | GI50 [50]: > 100 µM (inactive) | GI50 [51]: > 100 µM (inactive) | GI50 [52]: > 100 µM (inactive) | GI50 [53]: > 100 µM (inactive) | GI50 [54]: > 100 µM (inactive) | GI50 [55]: > 100 µM (inactive) | GI50 [57]: > 100 µM (inactive) | GI50 [58]: > 100 µM (inactive) | GI50 [59]: > 100 µM (inactive)
